Values joined by “and” are separate entries in the source; they are usually repeats but may differ in a detail not shown here. Equal values may be shown once. Inconclusive results are not listed.

This passage reports T/C results from PubChem BioAssay AID290 (DTP/NCI, 2004).

In the assay the test system is mice, P1798 lymphosarcoma sc, survival or tumor weight T/C. In words: NCI In Vivo Anticancer Drug Screen. Data for tumor model P1798 Lymphosarcoma (subcutaneous) in unknown mice. The method, then:
The antitumor activity of compounds was measured in mice bearing transplantable tumors. Survival or tumor size were measured and the results are expressed as the measurement made in the treated group (T) divided by the measurement made in the vehicle treated control group (C). The tumor model used in this assay is P1798 Lymphosarcoma (subcutaneous) in unknown mice

Where [1] appears, read: endpoint: mean tumor weight, dose: 25.0 mg/kg/injection, schedule: Q01DX010 (ip), vehicle: saline, higher = larger tumour.

`CN(Cc1cnc2nc(N)nc(N)c2n1)c1ccc(C(=O)N[C@@H](CCC(=O)O)C(=O)O)cc1`: the T/C reads like this: (endpoint: mean tumor weight, dose: 0.15 mg/kg/injection, schedule: Q01DX010 (ip), vehicle: other, higher = larger tumour) 79 % of control and 101 % of control; (endpoint: mean tumor weight, dose: 0.16 mg/kg/injection, schedule: Q01DX010 (ip), vehicle: other, higher = larger tumour) 118 % of control; (endpoint: mean tumor weight, dose: 0.39 mg/kg/injection, schedule: Q01DX010 (sc), vehicle: other, higher = larger tumour) 28 % of control; (endpoint: mean tumor weight, dose: 0.5 mg/kg/injection, schedule: Q01DX011 (ip), vehicle: carboxymethylcellulose (CMC), higher = larger tumour) 33 % of control; (endpoint: mean tumor weight, dose: 0.65 mg/kg/injection, schedule: Q01DX010 (sc), vehicle: other, higher = larger tumour) 50 % of control; (endpoint: mean tumor weight, dose: 1.0 mg/kg/injection, schedule: Q01DX011 (ip), vehicle: carboxymethylcellulose (CMC), higher = larger tumour) 1 % of control. Moreover, the T/C reads like this: (endpoint: mean tumor weight, dose: 1.08 mg/kg/injection, schedule: Q01DX010 (sc), vehicle: other, higher = larger tumour) 18 % of control; (endpoint: mean tumor weight, dose: 11.0 mg/kg/injection, schedule: Q01DX001 (ip), vehicle: carboxymethylcellulose (CMC), higher = larger tumour) 78 % of control; (endpoint: mean tumor weight, dose: 22.0 mg/kg/injection, schedule: Q01DX001 (ip), vehicle: carboxymethylcellulose (CMC), higher = larger tumour) 74 % of control; (endpoint: mean tumor weight, dose: 43.0 mg/kg/injection, schedule: Q01DX001 (ip), vehicle: carboxymethylcellulose (CMC), higher = larger tumour) 44 % of control; (endpoint: median survival time, dose: 0.31 mg/kg/injection, schedule: Q01DX010 (ip), vehicle: sodium bicarbonate, higher = longer survival) 101 % of control; (endpoint: median survival time, dose: 0.62 mg/kg/injection, schedule: Q01DX010 (ip), vehicle: sodium bicarbonate, higher = longer survival) 103 % of control. The T/C is, setting by setting: (endpoint: median survival time, dose: 0.63 mg/kg/injection, schedule: Q01DX010 (ip), vehicle: sodium bicarbonate, higher = longer survival) 103 % of control; (endpoint: median survival time, dose: 1.25 mg/kg/injection, schedule: Q01DX010 (ip), vehicle: sodium bicarbonate, higher = longer survival) 113 % of control; (endpoint: median survival time, dose: 2.5 mg/kg/injection, schedule: Q01DX010 (ip), vehicle: sodium bicarbonate, higher = longer survival) 33 % of control; (endpoint: median survival time, dose: 4.0 mg/kg/injection, schedule: Q04DX007 (ip), vehicle: sodium bicarbonate, higher = longer survival) 76 % of control; (endpoint: median survival time, dose: 5.0 mg/kg/injection, schedule: Q01DX010 (ip), vehicle: sodium bicarbonate, higher = longer survival) 37 % of control; (endpoint: median survival time, dose: 8.0 mg/kg/injection, schedule: Q04DX007 (ip), vehicle: sodium bicarbonate, higher = longer survival) 76 % of control. For the same molecule, the T/C was 161 % of control (endpoint: median survival time, dose: 16.0 mg/kg/injection, schedule: Q04DX007 (ip), vehicle: saline, higher = longer survival); 74 % of control (endpoint: median survival time, dose: 16.0 mg/kg/injection, schedule: Q04DX007 (ip), vehicle: sodium bicarbonate, higher = longer survival); 170 % of control (endpoint: median survival time, dose: 32.0 mg/kg/injection, schedule: Q04DX007 (ip), vehicle: saline, higher = longer survival); 29 % of control (endpoint: median survival time, dose: 32.0 mg/kg/injection, schedule: Q04DX007 (ip), vehicle: sodium bicarbonate, higher = longer survival); 25 % of control (endpoint: median survival time, dose: 64.0 mg/kg/injection, schedule: Q04DX007 (ip), vehicle: sodium bicarbonate, higher = longer survival).

Turning to `C[C@]12C=CC(=O)C=C1CC[C@@H]1[C@@H]2C(=O)C[C@@]2(C)[C@H]1CC[C@]2(O)C(=O)CO`, the T/C reads like this: (endpoint: mean tumor weight, dose: 0.31 mg/kg/injection, schedule: Q01DX010 (sc), vehicle: steriod suspending solution, higher = larger tumour) 81 % of control; (endpoint: mean tumor weight, dose: 0.62 mg/kg/injection, schedule: Q01DX010 (sc), vehicle: steriod suspending solution, higher = larger tumour) 124 % of control; (endpoint: mean tumor weight, dose: 3.1 mg/kg/injection, schedule: Q01DX010 (sc), vehicle: steriod suspending solution, higher = larger tumour) 82 % of control; (endpoint: mean tumor weight, dose: 5.0 mg/kg/injection, schedule: Q01DX010 (sc), vehicle: steriod suspending solution, higher = larger tumour) 59 % of control; (endpoint: mean tumor weight, dose: 6.25 mg/kg/injection, schedule: Q01DX010 (sc), vehicle: steriod suspending solution, higher = larger tumour) 99 % of control; (endpoint: mean tumor weight, dose: 10.0 mg/kg/injection, schedule: Q01DX010 (sc), vehicle: steriod suspending solution, higher = larger tumour) 83 % of control. In addition, the T/C is, setting by setting: (endpoint: mean tumor weight, dose: 10.0 mg/kg/injection, schedule: Q01DX010 (sc), vehicle: water, higher = larger tumour) 105 % of control; (endpoint: mean tumor weight, dose: 20.0 mg/kg/injection, schedule: Q01DX010 (sc), vehicle: steriod suspending solution, higher = larger tumour) 68 % of control and 74 % of control; (endpoint: mean tumor weight, dose: 20.0 mg/kg/injection, schedule: Q01DX010 (sc), vehicle: water, higher = larger tumour) 108 % of control; (endpoint: mean tumor weight, dose: 40.0 mg/kg/injection, schedule: Q01DX010 (sc), vehicle: water, higher = larger tumour) 100 % of control; (endpoint: mean tumor weight, dose: 60.0 mg/kg/injection, schedule: Q01DX001 (sc), vehicle: steriod suspending solution, higher = larger tumour) 87 % of control; (endpoint: mean tumor weight, dose: 120.0 mg/kg/injection, schedule: Q01DX001 (sc), vehicle: steriod suspending solution, higher = larger tumour) 34 % of control. The T/C is 82 % of control (endpoint: median survival time, dose: 2.34 mg/kg/injection, schedule: Q01DX029 (ip), vehicle: saline, higher = longer survival); 96 % of control (endpoint: median survival time, dose: 4.67 mg/kg/injection, schedule: Q01DX025 (ip), vehicle: saline, higher = longer survival); 100 % of control (endpoint: median survival time, dose: 9.35 mg/kg/injection, schedule: Q01DX025 (ip), vehicle: saline, higher = longer survival); 98 % of control (endpoint: median survival time, dose: 9.35 mg/kg/injection, schedule: Q01DX029 (ip), vehicle: saline, higher = longer survival); 89 % of control (endpoint: median survival time, dose: 9.37 mg/kg/injection, schedule: Q01DX029 (ip), vehicle: saline, higher = longer survival); 88 % of control (endpoint: median survival time, dose: 18.7 mg/kg/injection, schedule: Q01DX025 (ip), vehicle: saline, higher = longer survival). The T/C runs as follows: (endpoint: median survival time, dose: 18.75 mg/kg/injection, schedule: Q01DX010 (ip), vehicle: saline, higher = longer survival) 101 % of control; (endpoint: median survival time, dose: 37.5 mg/kg/injection, schedule: Q01DX025 (ip), vehicle: saline, higher = longer survival) 75 % of control; (endpoint: median survival time, dose: 75.0 mg/kg/injection, schedule: Q01DX010 (sc), vehicle: saline, higher = longer survival) 153 % of control; (endpoint: median survival time, dose: 75.0 mg/kg/injection, schedule: Q01DX025 (ip), vehicle: saline, higher = longer survival) 59 % of control; (endpoint: median survival time, dose: 150.0 mg/kg/injection, schedule: Q01DX010 (sc), vehicle: saline, higher = longer survival) 47 % of control; (endpoint: median survival time, dose: 150.0 mg/kg/injection, schedule: Q01DX025 (ip), vehicle: saline, higher = longer survival) 46 % of control. Moreover, the T/C reads like this: (endpoint: median survival time, dose: 150.0 mg/kg/injection, schedule: Q01DX029 (ip), vehicle: saline, higher = longer survival) 42 % of control; (endpoint: median survival time, dose: 300.0 mg/kg/injection, schedule: Q01DX010 (sc), vehicle: saline, higher = longer survival) 39 % of control; (endpoint: median survival time, dose: 600.0 mg/kg/injection, schedule: Q01DX010 (sc), vehicle: saline, higher = longer survival) 34 % of control.

For `N=C(N)SCc1c2ccccc2c(CSC(=N)N)c2ccccc12`, the T/C (endpoint: mean tumor weight, dose: 2.5 mg/kg/injection, schedule: Q01DX011 (ip), vehicle: carboxymethylcellulose (CMC), higher = larger tumour) is 85 % of control; the T/C (endpoint: mean tumor weight, dose: 5.0 mg/kg/injection, schedule: Q01DX011 (ip), vehicle: carboxymethylcellulose (CMC), higher = larger tumour) is 99 % of control; the T/C (endpoint: mean tumor weight, dose: 10.0 mg/kg/injection, schedule: Q01DX011 (ip), vehicle: carboxymethylcellulose (CMC), higher = larger tumour) was 50 % of control; the T/C (endpoint: mean tumor weight, dose: 20.0 mg/kg/injection, schedule: Q01DX011 (ip), vehicle: carboxymethylcellulose (CMC), higher = larger tumour) was 40 % of control.

On to `O=C(Nc1ccc(C2=NCCN2)cc1)c1ccc(C(=O)Nc2ccc(C3=NCCN3)cc2)cc1`, for which the T/C by setting is: (endpoint: mean tumor weight, dose: 8.0 mg/kg/injection, schedule: Q01DX010 (ip), vehicle: saline, higher = larger tumour) 67 % of control; (endpoint: mean tumor weight, dose: 16.0 mg/kg/injection, schedule: Q01DX010 (ip), vehicle: saline, higher = larger tumour) 65 % of control; (endpoint: mean tumor weight, dose: 32.0 mg/kg/injection, schedule: Q01DX010 (ip), vehicle: saline, higher = larger tumour) 109 % of control; (endpoint: mean tumor weight, dose: 64.0 mg/kg/injection, schedule: Q01DX010 (ip), vehicle: saline, higher = larger tumour) 49 % of control.

Turning to `CC(=O)Nc1ccc2nc3ccc(NC(C)=O)cc3[n+](-c3ccccc3)c2c1`, the T/C runs as follows: under setting [1], 56 % of control; (endpoint: mean tumor weight, dose: 50.0 mg/kg/injection, schedule: Q01DX010 (ip), vehicle: saline, higher = larger tumour) 21 % of control; (endpoint: mean tumor weight, dose: 100.0 mg/kg/injection, schedule: Q01DX010 (ip), vehicle: saline, higher = larger tumour) 12 % of control; (endpoint: mean tumor weight, dose: 200.0 mg/kg/injection, schedule: Q01DX010 (ip), vehicle: saline, higher = larger tumour) 3 % of control.

`CN(N=O)C(N)=O`: the T/C was 10 % of control (endpoint: mean tumor weight, dose: 12.5 mg/kg/injection, schedule: Q01DX010 (ip), vehicle: saline, higher = larger tumour) and 13 % of control under setting [1].

On to `[I][Hg][CH2]C1COC([CH2][Hg][I])CO1` (stereo not drawn), for which the T/C was 64 % of control (endpoint: mean tumor weight, dose: 1.8 mg/kg/injection, schedule: Q01DX010 (ip), vehicle: carboxymethylcellulose (CMC), higher = larger tumour); 85 % of control (endpoint: mean tumor weight, dose: 3.75 mg/kg/injection, schedule: Q01DX010 (ip), vehicle: carboxymethylcellulose (CMC), higher = larger tumour); 81 % of control (endpoint: mean tumor weight, dose: 7.5 mg/kg/injection, schedule: Q01DX010 (ip), vehicle: carboxymethylcellulose (CMC), higher = larger tumour); 65 % of control (endpoint: mean tumor weight, dose: 30.0 mg/kg/injection, schedule: Q01DX010 (ip), vehicle: carboxymethylcellulose (CMC), higher = larger tumour).
